Test [1] addresses T1, Rorγt (Mus musculus, UniProt P51450).
T1 construct: expressed in transfected cells; host or cells: EL4 cells stably transfected with Rorγt vector
T1 sequence (P51450 1-495 isoform P51450-2): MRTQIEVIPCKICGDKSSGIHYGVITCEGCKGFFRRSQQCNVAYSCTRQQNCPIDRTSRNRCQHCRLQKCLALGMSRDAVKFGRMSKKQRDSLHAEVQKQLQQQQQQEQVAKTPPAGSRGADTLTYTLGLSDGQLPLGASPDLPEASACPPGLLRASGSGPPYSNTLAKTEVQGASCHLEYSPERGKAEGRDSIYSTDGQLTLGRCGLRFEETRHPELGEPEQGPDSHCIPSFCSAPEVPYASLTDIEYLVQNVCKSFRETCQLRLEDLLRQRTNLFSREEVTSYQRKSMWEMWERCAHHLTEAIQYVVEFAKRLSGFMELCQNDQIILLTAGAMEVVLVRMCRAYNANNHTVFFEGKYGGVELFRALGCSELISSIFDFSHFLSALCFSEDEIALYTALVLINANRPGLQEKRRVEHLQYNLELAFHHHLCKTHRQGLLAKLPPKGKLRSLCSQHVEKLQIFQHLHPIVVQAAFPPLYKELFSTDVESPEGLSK
Kind of test: Rorγt ChIP-qPCR in Th17 cells. It is filed as cell-based. Conditions: WT Th17 cells, TGF-β1+IL-6 96h; 10 μM fatty acid added at day 0. (In general: Quantitative PCR measures a nucleic acid by following its amplification.)
Method: (FIG. 18A, FIG. 18B) Rorγt ChIP-PCR analyses in WT and CD5L−/− Th17 cells. WT, CD5L−/− and Rorγt−/− Th17 cells were differentiated with TGF-1+IL-6 for 96h. Enrichment of Rorγt binding to genomic regions of Il17 (FIG. 18A) and Il10 (FIG. 18B) is measured using qPCR. […] Three independent experiments were performed.

Test [2] has as its system Th17 cells. Nature of the test: Flow cytometry and intracellular cytokine staining of T cells. It is filed as cell-based, mouse. In general terms: In flow cytometry, cells or beads pass a laser one at a time.
Method: WT, CD5L−/− and Rorγt−/− Th17 cells were differentiated with TGF-1+IL-6 for 96h. […] Three independent experiments were performed. […] (FIG. 18E) Naïve WT T cells were activated without polarizing cytokines (Th0) and infected with retrovirus expressing Rorγt in the presence of control-RV or CD5L-RV with or without FF-MAS (5 uM) as a source of Rorγt ligand. Each dot represents an independent infection. (FIG. 18F) WT or CD5L−/− naïve cells were differentiated with TGF-β1+IL-6. At 48h, cells were replated in fresh media with either control or FF-MAS (5 uM) as a source of Rorγt ligand. Cells were harvested for FACS analysis 72h later.
T cell differentiation culture. Naïve CD4+CD44−CD62L+CD25− T cells or Effector memory CD4+CD44+CD62L− were sorted using BD FACSAria sorter and activated with plate-bound anti-CD3 and anti-CD28 antibodies (both at 2 μg/ml) in the presence of cytokines at a concentration of 2.5×10^5 cells/ml. For Th17 differentiation: 2 ng/ml of rhTGFβ1, 2 ng/ml of rhTGFβ3, 25 ng/ml rmIL-6, 20 ng/ml rmIL-18 (all from Miltenyi Biotec) and 20 ng/ml rmIL-23 (R & D systems) were used at various combinations as specified in figures. For Th1 differentiation, 20 ng/ml rmIL-12 (R & D systems); for Th2 differentiation 20 ng/ml rmIL-4 (Miltenyi Biotec); for iTreg differentiation, 2.5 ng/ml of rhTGFβ1 were used (Miltenyi Biotec). For differentiation experiments, cells were harvested at 48 hours. For restimulation experiments, cells were differentiated for 48 hours and resuspended in fresh media with no additional cytokines for 48-72 hours. Cells were re-stimulated with PMA/ionomycin for four hours before analysis for cytokines by intracellular cytokine staining. For experiments with exogenous fatty acid, fatty acids were purchased and resuspended first with serum-free media containing BSA prior being added to culture.
Flow cytometry and intracellular cytokine staining. Sorted naïve T cells were stimulated with phorbol 12-myristate 13-acetate (PMA) (50 ng/ml, Sigma-aldrich), ionomycin (1 μg/ml, Sigma-aldrich) and a protein transport inhibitor containing monensin (Golgistop) (BD Biosciences) for 4 h before detection by staining with antibodies.
Test [3] deals with Th17 cells. Kind of test: qPCR of gene expression (cyp51, sc4mol, pathogenicity signature) in Th17 cells with exogenous fatty acid. In kind it is cell-based, mouse.
For test [4] the following is noted: mice fed with a diet rich in PUFA (Monk et al., 2012, 2013); cited from earlier work.
Test [5] addresses T1, Rorγt. Kind of test: Dual luciferase reporter assay of Rorγt transcriptional activity in EL4 cells. In kind it is cell-based. Conditions: in the presence of an agonistic Rorγt ligand. On the procedure: Cells and supernatant were harvested at 96 hours and subjected to MS/LC. Three independent mouse experiments were performed. […] All ChIP and luciferase assay are representative of at least 3 independent experiments.
Three independent experiments were performed.

[6] abbreviates: Th17 cells differentiated with TGF-β1+IL-6.

Turning to `CCCCC/C=C\C/C=C\C/C=C\C/C=C\CCCC(=O)O` [PUFA, arachidonic acid], at Rorγt [1], the “Rorγt binding at Il17 and Il23r loci (ChIP-PCR)” value is reported as “decreased such binding”; the “Rorγt binding to the Il10 CNS-9 locus (ChIP-PCR)” value is given as “increased Rorγt binding to the Il10 CNS-9 locus”. Moreover, the “percentage of IL-17+CD4+ T cells” value in the test on Th17 cells [2] (CD5L−/− Th17 cells differentiated with TGF-β1+IL-6) is “reduced percentage of IL-17+CD4+ T cells”. For the same molecule, the “IL-17 and IL-23R expression” value in the test on Th17 cells [2] (WT Th17 cells differentiated with TGF-β1+IL-6 and expanded using IL-23 with fatty acid) is “suppressed IL-17 and IL-23R expression”. The “expression of cyp51 and sc4mol mRNA” value with Th17 cells [3] (CD5L−/− Th17 cells (TGF-β1+IL-6), fatty acid 25 uM added at 48h, analyzed at 96h) was “abolished the increased expression of the enzymes”. In the test with Th17 cells [3] (setting [6]), the “Il22 expression (qPCR)” value was “increased” and the “effector molecule expression of the pathogenicity signature (Il10, Il23r, Ccl5, Csf2, Lag3; qPCR)” value is recorded as “reciprocally regulated”. The “severity of chronic colitis and Th17 cell polarization” value in test [4] is “reduced severity of chronic colitis and Th17 cell polarization”. For the same molecule, at Rorγt [5], the Il10 transactivation result is “enhanced Il10 transactivation” and the “Rorγt-mediated Il23r transactivation” value is recorded as “inhibited Rorγt-mediated Il23r transactivation”.

The record behind these values is patent publication US11427869B2, “T cell balance gene expression, compositions of matters and methods of use thereof” (THE BROAD INSTITUTE, INC., priority 2015, dated 2022).
